Assay results from patent US6969616B2 (Kaneka Corporation, priority 2000, dated 2005).

System: enterotoxins
Assay type: binding, Staphylococcus aureus

## CCCCCCCCN [n-octylamine]
  adsorptive affinity for enterotoxins: phenomenal increase in the adsorptive affinity for enterotoxins
